Assay results from patent US12702689B2, “Anti-inflammatory compositions, and uses thereof” (P.L. THOMAS & CO., INC., priority 2022, dated 2026).

Experiments:
[1] = tested on: airway reactivity to acetyl-β-methacholine chloride; experiment: Airway hyperresponsiveness: total respiratory system resistance (Rrs) to methacholine, flexiVent; assay type: in vivo, BALB/cJ female mice; conditions: for total respiratory system resistance (Rrs) in response to methacholine: OVA+AKBA mice
Source text: Allergic airway phenotype was induced by using an ovalbumin (OVA, hen egg) sensitization and challenge model as previously described with modifications [Beigelman, A. et al. Azithromycin attenuates airway inflammation in a noninfectious mouse model of allergic asthma. Chest 136, 498-506 (2009)]. Briefly (FIG. 1), two groups of mice (OVA control and OVA+AKBA) were sensitized with intraperitoneal ovalbumin plus alum on days 0 and 7, challenged for 3 days (day 14 to day 17) via nebulized OVA at 1% in PBS for 30 mins, and harvested 48 hr after final challenge. Supplementation groups (OVA+AKBA) were given 100 mg/kg of water soluble AKBA (pH 7) (PLT Health Solutions, Morristown, NJ, US) in autoclaved mouse water, via gavage, every other day for 10 days and then every day for the remainder of the experiment (9 days). OVA control and naïve mouse continued to receive normal autoclaved mouse water. Mice were weighted at the beginning and end of the experiment. Experiments involving AKBA were conducted twice, with the first group containing 5 mice per group and the second containing 15 mice per group (5 per group for naive). Experiment procedures were identical, and results were pooled for n=20 (n=5 for naive). Animal protocol 102063-0522 was approved by the University of Connecticut Health IACUC board.
Airway reactivity was assessed based on total respiratory system resistance (Rrs) response to increasing doses (0-100 mg/ml) of acetyl-β-methacholine chloride (Sigma-Aldrich, St. Louis, MO). Mice were […] (150 mg/kg ketamine and 10 mg/kg xylazine), underwent tracheostomies and were mechanically ventilated using the flexiVent system (SCIREQ, Montreal, CA). Airway reactivity was determined by assessing forced oscillatory mechanics every 10 s for 4 min following each methacholine challenge.

gut microbiome = experiment: Gut microbiome profiling of fecal pellets by 16S rRNA sequencing; assay type: in vivo, BALB/cJ female mice
Source text: Allergic airway phenotype was induced by using an ovalbumin (OVA, hen egg) sensitization and challenge model as previously described with modifications [Beigelman, A. et al. Azithromycin attenuates airway inflammation in a noninfectious mouse model of allergic asthma. Chest 136, 498-506 (2009)]. Briefly (FIG. 1), two groups of mice (OVA control and OVA+AKBA) were sensitized with intraperitoneal ovalbumin plus alum on days 0 and 7, challenged for 3 days (day 14 to day 17) via nebulized OVA at 1% in PBS for 30 mins, and harvested 48 hr after final challenge. Supplementation groups (OVA+AKBA) were given 100 mg/kg of water soluble AKBA (pH 7) (PLT Health Solutions, Morristown, NJ, US) in autoclaved mouse water, via gavage, every other day for 10 days and then every day for the remainder of the experiment (9 days). OVA control and naïve mouse continued to receive normal autoclaved mouse water. Mice were weighted at the beginning and end of the experiment. Experiments involving AKBA were conducted twice, with the first group containing 5 mice per group and the second containing 15 mice per group (5 per group for naive). Experiment procedures were identical, and results were pooled for n=20 (n=5 for naive). Animal protocol 102063-0522 was approved by the University of Connecticut Health IACUC board. Experiments were repeated, as stated above, with oral gavages of B. pseudolongum culture in place of AKBA supplementation. Groups were designated as OVA control (n=10), OVA+B. pseudolongum (n=10) and naïve (n=5). OVA+B. pseudolongum groups were given 10^8 CFU B. pseudolongum in culture medium via gavage, every other day for 10 days and then every day for the remainder of the experiment (9 days). Fresh fecal pellets were collected upon defecation and stored in sterile RNA-/DNA-/RNAse-/DNAse-free microcentrifuge tubes at the beginning and end of experiment (FIG. 1). Collected pellets were placed at −80° C. for storage following collection. DNA from pellets were extracted using the PowerSoil DNA Isolation Kit (Qiagen, Hilden, Germany) according to the manufacturer's protocol. Amplicon library preparation and V4 region of 16S rRNA gene sequencing were performed at Illumina HiSeq 4000 (Illumina, CA, US) platform. Raw 16S rRNA sequences (150-bp paired-end reads) were initially processed by BaseSpace software (Illumina, CA, US). One mismatch in primer and zero mismatch in barcodes were applied to sample deconvolution. Deconvoluted sequences were further processed using the DADA2 data processing pipeline with default parameters to obtain amplicon sequence variants (ASVs). Final taxonomic assignment was conducted using RDP-classifier (v2.11) with 0.5 confidence value as cut-off. Reads with <0.5 confidence of classification was “unclassified” at a given taxonomical level. ASV counts were converted to relative abundance and agglomerated at the phylum and genus levels using the Phyloseq R package to visualize the microbiome composition in a stacked bar plot. […] Sample reads were rarefied to 10,000 reads to account for uneven sampling depth. Alpha diversity was determined with the richness and Shannon diversity metrics at the ASV level. Wilcoxon sum rank test was performed to compare alpha diversity of stool microbiome between asthma control and AKBA treated mice at day 0 and day 19. Beta diversity was visualized by principal component analysis (PCA). DESeq2, with an adjusted p value<0.05, was used for the differential taxa analysis. All plots were created with “ggplot2” and all analyses were conducted in RStudio version 4.1.0.

[2] = AKBA treated mice, baseline vs endpoint, DESeq p<0.05

CC(=O)O[C@@H]1CC[C@@]2(C)[C@@H](CC[C@]3(C)[C@@H]2C(=O)C=C2[C@@H]4[C@@H](C)[C@H](C)CC[C@]4(C)CC[C@]23C)[C@@]1(C)C(=O)O [AKBA, 3-O-acetyl-11-keto-b-boswellic acid]
total respiratory system resistance (Rrs) in response to methacholine ([1]; methacholine 12.5 mg, p=0.02 vs OVA control): 2.38±0.55
total respiratory system resistance (Rrs) in response to methacholine ([1]; methacholine 25 mg, p=0.04 vs OVA control): 3.56±1.25
difference in Rrs between OVA control and OVA+AKBA ([1]; higher methacholine concentrations (above 25 mg)): No significant difference
difference in Rrs between all three groups ([1]; methacholine 0 mg/mL, ANOVA p=0.341): No significant difference
change in Hyphomicrobium, Solirubrobacter and Steroidobacter (gut microbiome; [2]): decreases
change in Lactiplantibacillus, Lacticaseibacillus and Turicibacter (gut microbiome; [2]): increases
overall richness and Shannon diversity of gut microbiome, baseline to endpoint (gut microbiome; OVA+AKBA group, 100 mg/kg AKBA): maintained
Bifidobacterium increase, fold change (gut microbiome; OVA+AKBA group, baseline to endpoint, Wilcoxon p=0.07 vs OVA control): 15.94±15.84 fold
the 24 genera decreased in OVA control mice (Table 1): decreased in treated group (gut microbiome; OVA+AKBA group, baseline vs end point): None
relative abundances of Actinobacteria phyla and Bifidobacterium genus vs OVA control mice (gut microbiome; OVA+AKBA mice): significantly higher
